PubChem BioAssay (NCI)
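Tested at 5 concentrations; 48 h exposure; 96-well plates; endpoints linearly interpolated, else capped at highest concentration. GI50 = concentration required for 50% inhibition of growth. The concentration for full growth arrest is given as TGI.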

Legend:
Experiment in all cases: NCI anticancer screen, dose series, 48 h
[1] = test system: UACC-62 melanoma
[2] = test system: UO-31 renal
[3] = test system: SR leukemia
[4] = test system: SF-539 CNS
[5] = test system: SK-MEL-5 melanoma
[6] = test system: RXF 393 renal
[7] = test system: SK-OV-3 ovarian
[8] = test system: HL-60(TB) leukemia
[9] = test system: IGROV1 ovarian
[10] = test system: OVCAR-3 ovarian

SMILES	TGI [1] [µM]	TGI [2] [µM]	TGI [3] [µM]	TGI [4] [µM]	TGI [5] [µM]	TGI [6] [µM]	TGI [7] [µM]	TGI [8] [µM]	TGI [9] [µM]	TGI [10] [µM]	GI50 [1] [µM]	GI50 [2] [µM]	GI50 [3] [µM]	GI50 [5] [µM]	GI50 [6] [µM]	GI50 [7] [µM]	GI50 [8] [µM]	GI50 [9] [µM]	GI50 [4] [µM]	GI50 [10] [µM]
CC1=COC2=C(C)C(=O)C(=O)c3c(C)ccc1c32	11.9	40.6	> 42.6	10.7	3.26	21.5	> 93.2	5.38	21.6	–	–	–	–	–	–	–	–	–	–	–
COc1ccc(/C=N/NC(=O)O)cc1	> 100	> 100	> 100	> 100	> 100	> 100	> 100	–	> 100	> 100	–	–	–	–	–	–	–	–	–	–
CC1=CCC2(C#N)CCC1C2=O (configuration not stated)	> 100	> 100	> 100	> 100	> 100	–	> 100	> 100	> 100	> 100	–	–	–	–	–	–	–	–	–	–
O=C(NCCNCCO)c1ccc2oc3cc4ccccc4c(=O)n3c2c1	19	16.8	> 50	–	16.4	21.1	20.4	34	17.7	–	7.85	7.11	4.64	9.26	9.96	8.66	11.7	5.77	–	–
O=C1/C(=C\c2ccccc2)c2ccccc2N1Cc1ccccc1	14.3	15.8	9.66	–	15.8	16.1	15.8	> 31.6	16.5	11.9	–	–	–	–	–	–	–	–	–	–
O=C(O)C1Cc2nc[nH]c2CN1 (configuration not stated)	> 100	> 100	> 100	> 100	> 100	–	> 100	> 100	> 100	> 100	–	–	–	–	–	–	–	–	–	–
Cc1c2n(c3ccccc13)CC1C2N(C)OC1(C)C (configuration not stated)	> 100	> 100	> 100	> 100	> 100	–	> 100	–	–	> 100	–	–	–	–	–	–	–	–	–	–
C[C@]12CC[C@@H]3c4ccc(O)cc4CC[C@H]3[C@@H]1CC[C@@H]2NS(=O)(=O)c1cccc(Br)c1	12.9	8.72	7.63	8.8	3.31	6.2	18.6	–	16.5	–	3.19	2.03	2.37	1.77	2.15	6.8	–	4.04	2.6	–
CC1=CC(C)C(O)C(C)/C=C/C(O)C/C=C(/C)C(=O)CC(O)C(C)\C=C/C=C/C=C\C(=O)NC2=C(O)c3cc(C)c(O)c(c3C(=O)C2=O)C1=O (configuration not stated)	> 100	> 100	> 100	> 100	> 100	–	–	> 100	> 100	> 100	–	–	–	–	–	–	–	–	–	–
COc1ccc2cc(C(=O)/C=C/c3ccc(OC)c(OC)c3)ccc2c1	39.2	49.3	6.16	16.3	16.6	–	> 100	25	78.2	> 100	16.2	23.3	2.04	2.82	–	32.4	2.31	10.5	3.77	14.8
COC(=O)c1c2c(c(C)[n+]([O-])c1C)C(=O)C(NCc1ccc(F)c(Cl)c1)=CC2=O	3.12	7.46	> 100	3.32	1.57	4.05	13.6	5.68	–	1.24	1.38	2.11	2.5	0.426	1.73	3.57	1.39	–	1.69	0.306
Cc1ccc(NC2=C(Cl)C(=O)c3nc(C)ccc3C2=O)cc1	2.97	2.88	–	3.11	3.1	2.96	24.6	4.96	3.35	1.39	1.57	1.53	–	1.71	1.57	11.9	1.98	1.54	1.67	0.395
CC(=O)Nc1ccc(/C=c2\sc3nnc(/C=C/c4ccccc4)n3c2=O)cc1	> 50	> 50	–	> 50	> 50	> 50	> 50	> 50	> 50	> 50	–	–	–	–	–	–	–	–	–	–
O=C(N/N=C/c1cc2ccccc2c2ccccc12)c1cc(O)c(O)c(O)c1	9.4	16.5	> 100	5.8	10.6	10.1	15.6	15.2	20.5	–	2.75	2.64	3.72	2.9	2.77	4.31	3.54	4.14	2.17	–
N/C(=N\C(=S)N1CCCCC1)N1CCCCC1	> 100	> 100	> 100	> 100	> 100	> 100	> 100	> 100	> 100	–	–	–	–	–	–	–	–	–	–	–
